In ChEMBL document CHEMBL1146540, “Bioactive constituents from three Vismia species” (2003):
In brackets after ≈: the same amount, converted by molar mass. Activity calls are given as the source filed them. The calls are words filed in the database; no cut-off is given here.

Experiments:
Format in all cases: functional
MCF7 = test: Cytotoxicity against human MCF7 cells
NCI-H460 = test: Cytotoxicity against human H460 cells
SF-268 = test: Cytotoxicity against human SF268 cells

| SMILES | Activity (MCF7) | Activity (NCI-H460) | Activity (SF-268) | GI50 (MCF7) [µg/mL] | GI50 (NCI-H460) [µg/mL] | GI50 (SF-268) [µg/mL] |
| --- | --- | --- | --- | --- | --- | --- |
| COc1cc2c(c(O)c1/C=C/C(C)C)C(=O)c1c(O)cc(C)cc1C2=O | inactive | inactive | inactive | – | – | – |
| COc1cc2c(c(O)c1/C=C/C(C)C)C(=O)c1c(O)cc(C)cc1C2C1c2cc(C)cc(O)c2C(=O)c2c1cc(OC)c(/C=C/C(C)C)c2O (stereo not given) | inactive | inactive | inactive | – | – | – |
| COc1cc2cc3c(c(O)c2c(O)c1/C=C/C(C)C)C(=O)CC(C)(O)C3 (stereo not given) [DEACETYLVISMIONE A] | – | – | – | 1.8 (≈ 5.05 µM) | 1.9 (≈ 5.33 µM) | 2.2 (≈ 6.17 µM) |
| CC(C)=CCOc1cc(O)c2c(O)c3c(cc2c1)CC(C)(O)CC3=O (stereo not given) [DEACETYLVISMIONE H] | – | – | – | 0.4 (≈ 1.17 µM) | 0.6 (≈ 1.75 µM) | 0.6 (≈ 1.75 µM) |
| CC(C)=CCc1c(C)cc2cc3c(c(O)c2c1O)C(=O)C=C(O)C3(CC=C(C)C)CC=C(C)C [FERRUGININ A] | – | – | – | 5 (≈ 10.9 µM) | 3.3 (≈ 7.16 µM) | 4.9 (≈ 10.6 µM) |
| CC(C)=CCC1=C(O)C(CC=C(C)C)(CC=C(C)C)c2cc3cc(C)cc(O)c3c(O)c2C1=O [FERRUGININ B] | – | – | – | 5 (≈ 10.9 µM) | 5 (≈ 10.9 µM) | 4 (≈ 8.68 µM) |
| CC(C)=CCC1=C(O)C(CC=C(C)C)(CC=C(C)C)c2cc3c(CC=C(C)C)c(C)cc(O)c3c(O)c2C1=O [FERRUGININ C] | – | – | – | 4.8 (≈ 9.08 µM) | 5.4 (≈ 10.2 µM) | 4 (≈ 7.57 µM) |
| CC(C)=CCc1c(C)cc(O)c2c(O)c3c(cc12)C(CC=C(C)C)(CC=C(C)C)C(O)=CC3=O [HARUNGANIN] | – | – | – | 6 (≈ 13 µM) | 6.4 (≈ 13.9 µM) | 6 (≈ 13 µM) |
| CC(C)=CCC1(CC=C(C)C)C(O)=CC(=O)c2c1cc1cc(C)cc(O)c1c2O [VISMIN] | – | – | – | 5.2 (≈ 13.2 µM) | 7.3 (≈ 18.6 µM) | 5.7 (≈ 14.5 µM) |
| COc1cc2cc3c(c(O)c2c2c1C=CC(C)(C)O2)C(=O)CC(C)(O)C3 (stereo not given) [VISMIONE B] | – | – | – | 1.6 (≈ 4.51 µM) | 2.8 (≈ 7.9 µM) | 2.5 (≈ 7.05 µM) |
